{"source": "paper PMC5539077", "about": "“Functional Characterization of a Missing Branch Component in Haematococcus pluvialis for Control of Algal Carotenoid Biosynthesis” (Frontiers in Plant Science, 2017)", "key": {"HpLCYE": {"biological_target": "T1, HpLCYE (Haematococcus lacustris, UniProt A0A0K1HSD1)", "T1 construct": "full ORF, 575 aa, codon-optimised, expressed from pACCRT-EIB plasmid in carotenoid-accumulating E. coli DH5alpha; no tag told", "T1 sequence (A0A0K1HSD1 1-575)": "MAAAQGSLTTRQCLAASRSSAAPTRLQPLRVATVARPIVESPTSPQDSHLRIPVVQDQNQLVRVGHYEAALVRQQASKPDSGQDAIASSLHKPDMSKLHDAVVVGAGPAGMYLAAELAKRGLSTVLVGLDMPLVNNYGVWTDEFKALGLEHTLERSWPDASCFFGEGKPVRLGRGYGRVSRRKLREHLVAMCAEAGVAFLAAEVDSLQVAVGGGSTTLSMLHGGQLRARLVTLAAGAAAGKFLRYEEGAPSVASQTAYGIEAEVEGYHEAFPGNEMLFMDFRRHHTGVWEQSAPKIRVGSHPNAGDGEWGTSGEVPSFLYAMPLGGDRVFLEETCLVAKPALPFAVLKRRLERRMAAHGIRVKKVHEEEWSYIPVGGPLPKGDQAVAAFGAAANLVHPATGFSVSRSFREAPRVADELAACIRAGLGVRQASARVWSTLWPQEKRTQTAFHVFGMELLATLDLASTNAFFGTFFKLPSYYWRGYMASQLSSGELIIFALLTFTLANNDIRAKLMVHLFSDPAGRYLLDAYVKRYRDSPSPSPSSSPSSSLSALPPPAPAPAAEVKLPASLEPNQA", "assay": "E. coli complementation, UPLC product profile", "format": "cell-based", "settings": "30 then 25 °C"}, "HpLCYB": {"biological_target": "T2, HpLCYB (Haematococcus lacustris, UniProt A0A1S6KDX2)", "T2 construct": "full ORF, 568 aa, expressed from pACCRT-EIB plasmid in carotenoid-accumulating E. coli DH5alpha; no tag told", "T2 sequence (A0A1S6KDX2 1-568)": "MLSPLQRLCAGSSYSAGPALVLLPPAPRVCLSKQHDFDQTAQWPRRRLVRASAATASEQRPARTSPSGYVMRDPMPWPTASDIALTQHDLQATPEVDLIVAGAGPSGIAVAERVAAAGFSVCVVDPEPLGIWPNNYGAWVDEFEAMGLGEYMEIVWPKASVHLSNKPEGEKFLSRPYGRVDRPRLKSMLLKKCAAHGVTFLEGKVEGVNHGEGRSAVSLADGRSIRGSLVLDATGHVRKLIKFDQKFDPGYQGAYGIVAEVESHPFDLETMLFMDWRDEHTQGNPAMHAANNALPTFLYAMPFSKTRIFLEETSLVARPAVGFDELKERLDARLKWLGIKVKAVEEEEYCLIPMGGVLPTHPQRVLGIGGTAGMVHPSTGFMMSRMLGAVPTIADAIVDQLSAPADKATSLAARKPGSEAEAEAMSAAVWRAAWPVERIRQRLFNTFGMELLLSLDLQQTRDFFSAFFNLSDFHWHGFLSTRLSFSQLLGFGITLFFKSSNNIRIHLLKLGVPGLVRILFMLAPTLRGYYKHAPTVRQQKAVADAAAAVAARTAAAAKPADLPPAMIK", "assay": "E. coli complementation, UPLC product profile", "format": "cell-based", "settings": "lycopene-accumulating E. coli DH5alpha (pACCRT-EIB-B), 30 then 25 °C; product beta-carotene"}, "HpLCYB (purified)": {"biological_target": "HpLCYB (purified) (Haematococcus lacustris, UniProt A0A1S6KDX2)", "assay": "in vitro cyclase assay, UPLC", "format": "biochemical", "settings": "50 mM gamma-carotene as printed, 0.1 M Tris-HCl pH 7.0, 10% glycerol, 5 mM DTT, 1 mM EDTA, 30 °C, 1 h; product beta-carotene"}}, "data": [{"smiles": "CC(C)=CCC/C(C)=C/C=C/C(C)=C/C=C/C(C)=C/C=C/C=C(C)/C=C/C=C(C)/C=C/C=C(\\C)CCC=C(C)C", "note": "[lycopene]", "values": [{"measurement": "E. coli complementation, UPLC product profile", "setting": "HpLCYE; lycopene-accumulating E. coli DH5alpha (pACCRT-EIB-E), product delta-carotene", "value": "HpLCYE cyclized only one end of lycopene to synthesize δ-carotene"}, {"measurement": "E. coli complementation, UPLC product profile", "setting": "HpLCYB", "value": "HpLCYB could cyclize both ends of lycopene to form β-carotene"}]}, {"smiles": "CC(C)=CCC/C(C)=C/C=C/C(C)=C/C=C/C(C)=C/C=C/C=C(C)/C=C/C=C(\\C)CC/C=C(\\C)CCC=C(C)C", "note": "[neurosporene]", "values": [{"measurement": "E. coli complementation, UPLC product profile", "setting": "HpLCYE; neurosporene-accumulating E. coli DH5alpha (pACCRT-EIBneurE), product alpha-zeacarotene", "value": "neurosporene produced by pACCRT-EIBneur was probably transformed into α-, and β-zeacarotene, respectively"}]}, {"smiles": "CC(C)=CCC/C(C)=C/C=C/C(C)=C/C=C/C(C)=C/C=C/C=C(C)/C=C/C=C(C)/C=C/C1=C(C)CCCC1(C)C", "note": "[γ-carotene]", "values": [{"measurement": "in vitro cyclase assay, UPLC", "setting": "HpLCYB (purified)", "value": "HpLCYB further cyclized γ-carotene to form β-carotene"}]}]}
